# Reference: ChEMBL document CHEMBL1201862, “PubChem BioAssay data set” (2004)
# Calls of active or inactive are those of the source.
# Columns and labels:
# [1] = biological target: T1, Corticotropin-releasing factor receptor 2/Corticotropin-releasing factor-binding protein (Homo sapiens, UniProt P24387+Q13324); assay: activators of CRF receptor 2 with binding protein – uHTS hits, confirmation (AID 602473); assay type: functional; details: read-out: EC50_Mean
# T1 sequence (Q13324 whole entry): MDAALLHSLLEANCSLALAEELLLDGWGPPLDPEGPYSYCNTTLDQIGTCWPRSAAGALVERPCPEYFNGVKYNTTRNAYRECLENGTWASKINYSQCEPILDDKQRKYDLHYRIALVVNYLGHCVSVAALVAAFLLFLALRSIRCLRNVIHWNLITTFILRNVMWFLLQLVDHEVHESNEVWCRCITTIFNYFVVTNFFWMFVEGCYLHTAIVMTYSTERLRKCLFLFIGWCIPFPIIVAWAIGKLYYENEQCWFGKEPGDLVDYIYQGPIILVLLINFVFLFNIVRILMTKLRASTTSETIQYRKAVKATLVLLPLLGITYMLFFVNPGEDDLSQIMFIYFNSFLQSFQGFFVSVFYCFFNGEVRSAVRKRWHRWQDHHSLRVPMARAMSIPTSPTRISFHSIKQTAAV
# T1 sequence (P24387 whole entry): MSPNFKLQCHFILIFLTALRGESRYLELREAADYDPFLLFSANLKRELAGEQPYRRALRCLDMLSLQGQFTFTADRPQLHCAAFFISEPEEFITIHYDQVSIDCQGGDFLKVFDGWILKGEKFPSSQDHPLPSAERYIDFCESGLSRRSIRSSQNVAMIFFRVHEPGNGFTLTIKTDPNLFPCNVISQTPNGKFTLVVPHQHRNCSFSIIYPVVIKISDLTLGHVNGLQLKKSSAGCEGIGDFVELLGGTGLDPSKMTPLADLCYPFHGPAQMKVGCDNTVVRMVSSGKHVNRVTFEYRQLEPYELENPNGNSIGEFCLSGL
# [2] = biological target: Cytochrome P450 2D6 (Homo sapiens, UniProt P10635);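 also: CYP2D6 member of a cytochrome P450 panel assay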
# [3] = biological target: T2, Cytochrome P450 1A2 (Homo sapiens, UniProt P05177);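 also: PubChem cytochrome P450 panel assay, CYP1A2 panel member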
# T2 sequence (P05177 whole entry): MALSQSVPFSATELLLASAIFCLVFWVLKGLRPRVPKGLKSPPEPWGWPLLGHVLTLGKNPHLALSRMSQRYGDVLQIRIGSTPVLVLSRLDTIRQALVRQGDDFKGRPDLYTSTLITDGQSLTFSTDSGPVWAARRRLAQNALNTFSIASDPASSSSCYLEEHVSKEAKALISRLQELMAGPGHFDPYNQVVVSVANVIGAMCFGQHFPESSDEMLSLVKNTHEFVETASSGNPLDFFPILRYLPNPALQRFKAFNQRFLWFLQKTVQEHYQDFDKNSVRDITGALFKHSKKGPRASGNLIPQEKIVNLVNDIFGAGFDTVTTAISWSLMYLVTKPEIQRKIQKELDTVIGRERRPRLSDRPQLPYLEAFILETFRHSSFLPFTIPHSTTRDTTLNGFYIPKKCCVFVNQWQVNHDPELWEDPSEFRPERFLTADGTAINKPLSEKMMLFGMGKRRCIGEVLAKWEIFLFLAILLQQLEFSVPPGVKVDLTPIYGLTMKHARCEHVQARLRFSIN
# [4] = Trypanosoma cruzi growth suppression in host cells – NIH3T3 host cells, beta-gal luminescence, confirmation (AID 2044); assay type: functional, cell-based;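 also: intracellular parasites grown in NIH/3T3 mouse fibroblasts as host cells; luminescent beta-galactosidase reporter signal from transgenic T. cruzi replicating inside host cells; inhibitors lower the luminescence signal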
# [5] = NIH3T3 cell viability loss – ATP luminescence, mouse fibroblasts, counter-screen, dose response (AID 2010); assay type: functional, cell-based;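 also: cells exposed to compound for about 90 hours before reading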
# [6] = biological target: Cytochrome P450 2C9 (Homo sapiens, UniProt P11712)
# [7] = biological target: Cytochrome P450 2C19 (Homo sapiens, UniProt P33261); assay: Cytochrome panel assay with activity outcomes. Panel member name: p450-cyp2c19 Compounds with AC50 equal or less than 10 uM are considered active; assay type: functional
# [8] = tested on: Streptococcus sp. 'group A'; assay: Streptococcus pyogenes SK(-)GAS viability under kanamycin – luminescence, BacTiterGlo, confirmation, counter-screen for streptokinase expression inhibitor project, dose response (AID 1900); assay type: functional, organism-based
# [9] = tested on: Streptococcus; assay: GAS UMAA2166 growth inhibition – luminescence, BacTiterGlo, counter-screen for streptokinase expression inhibitor project, dose response (AID 1915); assay type: functional, organism-based;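 also: potency for reduction of bacterial viability or growth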
# Chain of Cytochrome P450 2C19 (P33261 whole entry): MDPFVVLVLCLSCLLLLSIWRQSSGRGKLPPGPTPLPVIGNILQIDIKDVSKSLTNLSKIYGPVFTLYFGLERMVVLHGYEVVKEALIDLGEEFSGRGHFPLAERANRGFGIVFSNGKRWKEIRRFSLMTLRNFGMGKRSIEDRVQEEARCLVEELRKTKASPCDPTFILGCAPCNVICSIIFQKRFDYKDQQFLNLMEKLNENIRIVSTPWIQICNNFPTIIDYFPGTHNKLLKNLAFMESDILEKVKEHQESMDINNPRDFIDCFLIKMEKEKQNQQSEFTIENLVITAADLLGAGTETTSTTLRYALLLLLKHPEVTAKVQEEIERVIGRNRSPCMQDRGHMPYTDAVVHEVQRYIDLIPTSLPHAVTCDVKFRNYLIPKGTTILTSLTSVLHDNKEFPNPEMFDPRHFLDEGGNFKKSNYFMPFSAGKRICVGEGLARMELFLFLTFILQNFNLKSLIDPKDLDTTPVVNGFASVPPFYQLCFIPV
# Chain of Cytochrome P450 2D6 (P10635 whole entry): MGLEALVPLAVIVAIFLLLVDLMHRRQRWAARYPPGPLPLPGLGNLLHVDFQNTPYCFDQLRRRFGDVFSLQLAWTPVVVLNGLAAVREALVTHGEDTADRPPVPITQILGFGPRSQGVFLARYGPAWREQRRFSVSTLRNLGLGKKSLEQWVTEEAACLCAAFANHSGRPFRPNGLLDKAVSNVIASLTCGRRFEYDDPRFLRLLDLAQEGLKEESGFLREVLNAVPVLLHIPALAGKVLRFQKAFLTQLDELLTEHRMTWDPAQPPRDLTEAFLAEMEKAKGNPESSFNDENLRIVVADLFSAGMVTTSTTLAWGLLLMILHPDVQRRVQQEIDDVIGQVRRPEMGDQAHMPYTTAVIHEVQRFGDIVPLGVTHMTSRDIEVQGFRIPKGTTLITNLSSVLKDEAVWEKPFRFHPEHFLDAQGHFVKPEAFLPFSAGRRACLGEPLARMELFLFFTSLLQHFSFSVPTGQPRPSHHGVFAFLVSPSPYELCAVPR
# Chain of Cytochrome P450 2C9 (P11712 whole entry): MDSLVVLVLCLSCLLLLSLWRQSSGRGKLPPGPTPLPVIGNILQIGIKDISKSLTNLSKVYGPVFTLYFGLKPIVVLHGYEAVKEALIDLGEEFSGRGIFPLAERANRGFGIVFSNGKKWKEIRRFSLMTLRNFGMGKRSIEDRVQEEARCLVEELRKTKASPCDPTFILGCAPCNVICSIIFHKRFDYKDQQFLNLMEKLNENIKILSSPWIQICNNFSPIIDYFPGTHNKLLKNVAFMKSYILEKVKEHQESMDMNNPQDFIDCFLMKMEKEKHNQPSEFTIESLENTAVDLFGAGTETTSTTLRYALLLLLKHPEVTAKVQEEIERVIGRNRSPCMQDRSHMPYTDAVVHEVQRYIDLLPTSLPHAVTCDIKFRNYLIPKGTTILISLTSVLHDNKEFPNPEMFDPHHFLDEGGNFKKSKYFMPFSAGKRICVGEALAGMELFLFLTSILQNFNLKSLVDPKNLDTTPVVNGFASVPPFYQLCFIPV
smiles,measurement,setting,value
C=CCN1CCC2(C)c3cc(O)ccc3CC1C2C (stereo unspecified),EC50,[1],> 53 µM (inactive)
Cc1ccc(C(=N)c2ccccc2Cc2cccc3ccccc23)c2ccccc12,AC50,[2],2.51 µM (inconclusive)
same,AC50,[3],1 µM (inconclusive)
c1ccc(CN2CCCC3(CCCN(Cc4nc(COc5ccccc5)no4)C3)C2)cc1 (stereo unspecified),EC50,[4],0.285 µM (active)
same,EC50,[5],> 60 µM (not active)
O=C(Nc1ccncc1)c1cc(S(=O)(=O)N2CCN(c3ccccc3)CC2)ccc1Cl,EC50,[4],2.56 µM (active)
same,EC50,[5],> 30 µM (not active)
O=C(CN1CCCC1)Nc1ccccc1Sc1ccccc1,EC50,[1],> 53 µM (inactive)
O=C(COc1ccc2ccccc2c1)N1CCN(CC2CC3C=CC2C3)CC1 (stereo unspecified),AC50,[3],22.4 µM (inconclusive)
O=[N+]([O-])c1cc(Oc2cccnc2)cc([N+](=O)[O-])c1,EC50,[4],0.503 µM (active)
same,EC50,[5],> 60 µM (not active)
N#Cc1ccc(CN2CCCC3(CCN(C(=O)c4cnccn4)CC3)C2)cc1,AC50,[2],10 µM (inconclusive)
N#CCCn1c(=O)c(-c2ccc(F)cc2)nc2cnc(Oc3cccc(Cl)c3)nc21,AC50,[3],0.501 µM (inconclusive)
CN(C)CCCNc1c2c(=O)n(C)c(=O)nc-2n(C)c2ccccc12,AC50,[3],5.01 µM (inconclusive)
C#CCOC(=O)Nc1ccc(=O)n(Cc2c(Cl)cccc2Cl)c1,AC50,[2],20 µM (inconclusive)
same,AC50,[3],12.6 µM (inconclusive)
COC(=O)[C@@]1(Cc2ccccc2)[C@H]2c3cc(C(=O)N4CCCC4)n(Cc4ccc(C(F)(F)F)nc4)c3C[C@H]2CN1C(=O)c1ccccc1,AC50,[2],25.1 µM (inconclusive)
COCc1c(C(=O)OCC(=O)N2c3ccccc3NC(=O)C2(C)C)oc2ccccc12,AC50,[6],31.6 µM (inconclusive)
same,AC50,[7]; read-out: AC50,20 µM (inconclusive)
O=C(CSc1nc2ccccc2s1)c1sc2sc3ccccc3[n+]2c1O,AC50,[6],6.31 µM (inconclusive)
CC(C)c1cc(-c2cc(C(=O)NCc3ccccc3)on2)nc(NCC2CC2)n1,EC50,[1],10.2 µM (active)
COc1c(Cl)cc(-c2noc(C)c2C(=O)NCc2ccc3c(c2)OCO3)cc1Cl,EC50,[1],> 53 µM (inactive)
Cc1cc(SCC(=O)c2ccc(Br)cc2)cc(C)[o+]1,AC50,[2],3.16 µM (inconclusive)
same,AC50,[7]; read-out: AC50,0.398 µM (inconclusive)
COc1ccc(C(=O)C(OC(=O)CNC(=O)c2ccco2)c2ccccc2)cc1 (stereo unspecified),AC50,[2],35.5 µM (inconclusive)
same,AC50,[3],31.6 µM (inconclusive)
Cc1ccnc(NC(=O)c2cc([N+](=O)[O-])cc([N+](=O)[O-])c2)c1,EC50,[4],0.193 µM (active)
same,EC50,[5],> 60 µM (not active)
CCN1C(=O)[C@@H]2[C@H]3C(=CC[C@@H]2C1=O)C1(OCCCO1)[C@H]1O[C@@H]1[C@H]3O,AC50,[6],5.01 µM (inconclusive)
COc1ccccc1CN1CC[C@@]2(CCCN(S(=O)(=O)c3ccccc3)C2)C1,AC50,[3],25.1 µM (inconclusive)
Cc1ccc(SCc2n[nH]c3c2C(C(C)C)C(C#N)=C(N)O3)cc1 (stereo unspecified),AC50,[2],0.00316 µM (inconclusive)
Cc1cccc(-n2c(SCc3ccc([N+](=O)[O-])cc3)nnc2-c2c[nH]c3ccccc23)c1,EC50,[4],1.77 µM (active)
same,EC50,[5],> 60 µM (not active)
COc1cccc(C(=O)NC2CCN(C(=O)N3c4ccccc4Sc4ccccc43)CC2)c1,EC50,[4],2.23 µM (active)
same,EC50,[5],> 60 µM (not active)
CCOC(=O)c1ccc(NC(=O)C2CCCO2)cc1 (stereo unspecified),AC50,[6],0.0251 µM (inconclusive)
same,AC50,[7]; read-out: AC50,14.1 µM (inconclusive)
Cc1cc(C)c2nc3c(c([C@H](O)[C@@H]4CCCCN4)c2c1)CC/C3=C/c1ccc(Cl)cc1,AC50,[6],1 µM (inconclusive)
Cc1ccc(C(=O)NNC(=O)CSc2nnc(-c3ccncc3)n2-c2ccc(C)cc2)cc1,AC50,[2],12.6 µM (inconclusive)
O=S(=O)(c1ccccc1)c1cnn2c(C(F)(F)F)cc(-c3ccccc3)nc12,AC50,[6],0.708 µM (inconclusive)
same,AC50,[7]; read-out: AC50,39.8 µM (inconclusive)
COc1ccc(C(=O)c2sc(Nc3cccc(OC)c3)c(C(=O)Nc3cccc(C)c3C)c2N)cc1,EC50,[1],> 53 µM (inactive)
CCCCN(C)CCCNC(=O)c1ccc2c(c1)N(CC)C(=O)c1ccccc1[S+]2[O-] (stereo unspecified),EC50,[4],0.238 µM (active)
same,EC50,[5],> 60 µM (not active)
Cc1cc(/C=C2\C(=N)N3N=C(S(C)(=O)=O)SC3=NC2=O)c(C)n1Cc1ccccc1,EC50,[8],4.19 µM (active)
same,EC50,[9],21.1 µM (active)
COc1ccccc1/C=C/C(=O)OCCCN(C)C,EC50,[4],0.794 µM (active)
same,EC50,[5],> 30 µM (not active)
NC(=NOC(=O)Cc1ccc(-c2ccccc2)cc1)c1cccc([N+](=O)[O-])c1,AC50,[6],10 µM (inconclusive)
same,AC50,[7]; read-out: AC50,2.82 µM (inconclusive)
COc1ccc(NC(=O)OC(C)C)cc1,AC50,[2],35.5 µM (inconclusive)
same,AC50,[6],14.1 µM (inconclusive)
same,AC50,[7]; read-out: AC50,28.2 µM (inconclusive)
Cn1cc(-c2nc3cncnc3n(-c3ccccc3)c2=O)c2ccccc21,AC50,[7]; read-out: AC50,39.8 µM (inconclusive)
Cc1ccc2c(c1)N(CC(=O)NC1CCC(C)CC1)C(=O)CO2 (stereo unspecified),AC50,[2],14.1 µM (inconclusive)
CCn1cnc2c(Nc3cccc(Cl)c3)nc(N[C@@H]3CCCC[C@H]3N)nc21,AC50,[7],inconclusive
CCOC(=O)/C(=C\c1ccc([N+](=O)[O-])o1)NC(=O)c1ccccc1,EC50,[4],0.995 µM (active)
same,EC50,[5],> 60 µM (not active)
CC(OC(=O)c1ccc(S(=O)(=O)NCc2ccco2)cc1)C(=O)Nc1ccc(Cl)cn1 (stereo unspecified),EC50,[1],4.62 µM (active)
Oc1ccc(Oc2nc(N3CCOCC3)nc(N3CCOCC3)n2)nn1,AC50,[7]; read-out: AC50,2.82 µM (inconclusive)
O=C(NC(=S)Nc1ccc(CN2CCCCC2)cc1)c1cccc(OCc2ccccc2)c1,EC50,[4],1.09 µM (active)
same,EC50,[5],> 60 µM (not active)
O=C(CCS(=O)(=O)c1cccs1)N1CCN(c2ccc(F)cc2)CC1,AC50,[6],2.51 µM (inconclusive)
same,AC50,[3],31.6 µM (inconclusive)
Cc1ccc(-c2ccc(=O)n(CC(=O)N3CCN(c4cccc(C)c4)C(C)C3)n2)cc1 (stereo unspecified),AC50,[2],28.2 µM (inconclusive)
same,AC50,[6],20 µM (inconclusive)
same,AC50,[3],20 µM (inconclusive)
COc1ccc(C(=O)OCC(=O)Nc2nnc(-c3ccccc3)o2)cc1,EC50,[8],5.97 µM (active)
same,EC50,[9],19.2 µM (active)
c1ccc(CCNCc2ccco2)nc1,AC50,[2],2.51 µM (inconclusive)
same,AC50,[3],6.31 µM (inconclusive)
CCOc1ccc(NS(=O)(=O)c2ccc(C(=O)N3CCCC(C)C3)cc2)cc1 (stereo unspecified),EC50,[1],11.1 µM (active)
CCOC(=O)c1c(-c2ccccc2)csc1NC(=O)/C(C#N)=C\c1ccc(O)c(OC)c1,EC50,[1],6.49 µM (active)
CC(=O)N1CCC(=O)N(C(C)C)c2ccccc21,AC50,[6],0.0282 µM (inconclusive)
CCC(=O)NC(NC(=O)CC)C(Cl)Cl,AC50,[6],20 µM (inconclusive)
CCOc1ccc(N2C(=O)CS/C2=N/NC(=O)COc2ccc3ccccc3c2)cc1,AC50,[2],39.8 µM (inconclusive)
same,AC50,[6],31.6 µM (inconclusive)
Cc1cccc([C@H](C)c2cnc[nH]2)c1C [DEXMEDETOMIDINE],AC50,[2],12.6 µM (inconclusive)
CC(=O)SC[C@@H](Cc1ccccc1)C(=O)NCC(=O)OCc1ccccc1 [ECADOTRIL],AC50,[6],3.98 µM (inconclusive)
O=C(O)CCC(=O)c1ccc(-c2ccccc2)cc1 [FENBUFEN],AC50,[3],12.6 µM (inconclusive)
C[C@H](N[C@@H](C)COc1ccccc1)[C@H](O)c1ccc(O)cc1 [ISOXSUPRINE],AC50,[7]; read-out: AC50,15.8 µM (inconclusive)
